# Assay results taken from patent publication US7063946B2, “Methods, reagents, kits and apparatus for protein function analysis” (Meso Scale Technologies, LLC., priority 2001, dated 2006).
# What was measured:
# Assay in all cases: Kinase inhibitor profiling, autophosphorylation
# Format in all cases: biochemical
# BMX = biological target: T1, BMX (Homo sapiens, UniProt P51813)
# T1 construct: specificity data for proteins generated from a library of eighteen full-length clones; host or cells: rabbit reticulocyte lysate, TnT coupled in vitro transcription/translation (cell-free)
# T1 sequence (P51813 1-675): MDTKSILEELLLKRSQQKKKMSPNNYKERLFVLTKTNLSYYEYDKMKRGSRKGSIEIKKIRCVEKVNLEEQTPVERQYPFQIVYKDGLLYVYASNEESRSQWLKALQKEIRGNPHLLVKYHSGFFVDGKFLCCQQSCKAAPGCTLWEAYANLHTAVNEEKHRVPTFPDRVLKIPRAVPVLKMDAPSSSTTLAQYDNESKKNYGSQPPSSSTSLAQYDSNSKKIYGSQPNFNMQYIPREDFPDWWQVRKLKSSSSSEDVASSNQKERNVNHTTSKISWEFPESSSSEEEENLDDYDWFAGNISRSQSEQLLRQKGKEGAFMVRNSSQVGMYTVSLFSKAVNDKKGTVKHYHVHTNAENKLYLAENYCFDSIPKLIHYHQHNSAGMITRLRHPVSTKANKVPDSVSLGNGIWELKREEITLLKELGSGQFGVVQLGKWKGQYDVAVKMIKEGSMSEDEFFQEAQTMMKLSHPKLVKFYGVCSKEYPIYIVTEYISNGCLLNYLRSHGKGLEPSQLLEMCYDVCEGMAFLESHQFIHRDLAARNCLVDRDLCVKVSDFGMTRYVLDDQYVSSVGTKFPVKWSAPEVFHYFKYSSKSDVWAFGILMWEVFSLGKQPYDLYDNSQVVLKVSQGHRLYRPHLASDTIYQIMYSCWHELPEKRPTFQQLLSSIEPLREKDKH
# Tek = biological target: T2, Tek (Mus musculus, UniProt Q02858)
# T2 construct: specificity data for proteins generated from a library of eighteen full-length clones; host or cells: rabbit reticulocyte lysate, TnT coupled in vitro transcription/translation (cell-free)
# T2 sequence (Q02858 23-1122): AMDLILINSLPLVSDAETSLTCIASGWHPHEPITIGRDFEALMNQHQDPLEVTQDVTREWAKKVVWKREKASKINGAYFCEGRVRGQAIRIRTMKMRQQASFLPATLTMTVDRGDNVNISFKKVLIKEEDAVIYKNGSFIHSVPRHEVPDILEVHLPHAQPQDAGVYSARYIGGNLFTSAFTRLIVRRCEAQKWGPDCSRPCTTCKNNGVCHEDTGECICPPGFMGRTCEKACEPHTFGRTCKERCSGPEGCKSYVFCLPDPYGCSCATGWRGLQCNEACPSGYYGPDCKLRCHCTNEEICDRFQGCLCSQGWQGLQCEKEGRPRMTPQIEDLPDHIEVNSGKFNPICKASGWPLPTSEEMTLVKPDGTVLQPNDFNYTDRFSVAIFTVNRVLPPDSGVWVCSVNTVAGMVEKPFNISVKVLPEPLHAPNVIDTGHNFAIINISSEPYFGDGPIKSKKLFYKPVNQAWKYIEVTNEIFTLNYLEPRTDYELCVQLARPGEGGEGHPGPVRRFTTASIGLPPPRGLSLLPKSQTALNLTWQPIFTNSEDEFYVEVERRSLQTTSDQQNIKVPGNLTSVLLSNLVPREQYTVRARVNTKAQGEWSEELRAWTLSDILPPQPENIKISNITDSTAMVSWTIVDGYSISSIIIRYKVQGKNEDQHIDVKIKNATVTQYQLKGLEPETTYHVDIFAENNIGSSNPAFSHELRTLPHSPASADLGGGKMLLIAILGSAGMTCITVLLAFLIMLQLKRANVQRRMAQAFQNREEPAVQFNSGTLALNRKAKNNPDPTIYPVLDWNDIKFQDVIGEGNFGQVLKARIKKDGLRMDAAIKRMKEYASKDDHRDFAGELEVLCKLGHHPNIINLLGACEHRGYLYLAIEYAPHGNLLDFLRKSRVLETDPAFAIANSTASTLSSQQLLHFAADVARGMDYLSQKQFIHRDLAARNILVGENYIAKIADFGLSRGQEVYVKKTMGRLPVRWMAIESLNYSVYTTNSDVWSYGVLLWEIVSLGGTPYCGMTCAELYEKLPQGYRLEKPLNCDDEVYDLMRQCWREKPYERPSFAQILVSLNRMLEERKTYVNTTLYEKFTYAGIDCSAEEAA
# FGFR1 = biological target: T3, FGFR1 (Homo sapiens, UniProt P11362)
# T3 construct: specificity data for proteins generated from a library of eighteen full-length clones; host or cells: rabbit reticulocyte lysate, TnT coupled transcription/translation
# CSK = biological target: T4, CSK (Homo sapiens, UniProt P41240)
# T4 construct: specificity data for proteins generated from a library of eighteen full-length clones; host or cells: rabbit reticulocyte lysate, TnT coupled in vitro transcription/translation (cell-free)
# T4 sequence (P41240 whole entry): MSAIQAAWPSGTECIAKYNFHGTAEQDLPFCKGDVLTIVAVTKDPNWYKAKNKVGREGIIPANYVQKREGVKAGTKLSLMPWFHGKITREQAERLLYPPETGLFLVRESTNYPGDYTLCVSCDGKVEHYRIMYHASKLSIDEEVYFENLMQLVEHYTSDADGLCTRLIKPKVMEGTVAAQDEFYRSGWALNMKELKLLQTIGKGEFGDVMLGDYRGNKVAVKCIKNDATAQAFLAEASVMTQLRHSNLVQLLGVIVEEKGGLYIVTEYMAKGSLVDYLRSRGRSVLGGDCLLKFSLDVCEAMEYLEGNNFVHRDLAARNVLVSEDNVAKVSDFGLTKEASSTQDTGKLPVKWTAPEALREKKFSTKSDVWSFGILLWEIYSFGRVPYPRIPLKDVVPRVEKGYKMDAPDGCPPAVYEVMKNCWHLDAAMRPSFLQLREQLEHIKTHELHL
# FRK = test system: FRK
# PTK2B = biological target: T5, PTK2B (Homo sapiens, UniProt Q14289)
# T5 construct: specificity data for proteins generated from a library of eighteen full-length clones; host or cells: rabbit reticulocyte lysate, TnT coupled in vitro transcription/translation (cell-free)
# T5 sequence (Q14289 whole entry): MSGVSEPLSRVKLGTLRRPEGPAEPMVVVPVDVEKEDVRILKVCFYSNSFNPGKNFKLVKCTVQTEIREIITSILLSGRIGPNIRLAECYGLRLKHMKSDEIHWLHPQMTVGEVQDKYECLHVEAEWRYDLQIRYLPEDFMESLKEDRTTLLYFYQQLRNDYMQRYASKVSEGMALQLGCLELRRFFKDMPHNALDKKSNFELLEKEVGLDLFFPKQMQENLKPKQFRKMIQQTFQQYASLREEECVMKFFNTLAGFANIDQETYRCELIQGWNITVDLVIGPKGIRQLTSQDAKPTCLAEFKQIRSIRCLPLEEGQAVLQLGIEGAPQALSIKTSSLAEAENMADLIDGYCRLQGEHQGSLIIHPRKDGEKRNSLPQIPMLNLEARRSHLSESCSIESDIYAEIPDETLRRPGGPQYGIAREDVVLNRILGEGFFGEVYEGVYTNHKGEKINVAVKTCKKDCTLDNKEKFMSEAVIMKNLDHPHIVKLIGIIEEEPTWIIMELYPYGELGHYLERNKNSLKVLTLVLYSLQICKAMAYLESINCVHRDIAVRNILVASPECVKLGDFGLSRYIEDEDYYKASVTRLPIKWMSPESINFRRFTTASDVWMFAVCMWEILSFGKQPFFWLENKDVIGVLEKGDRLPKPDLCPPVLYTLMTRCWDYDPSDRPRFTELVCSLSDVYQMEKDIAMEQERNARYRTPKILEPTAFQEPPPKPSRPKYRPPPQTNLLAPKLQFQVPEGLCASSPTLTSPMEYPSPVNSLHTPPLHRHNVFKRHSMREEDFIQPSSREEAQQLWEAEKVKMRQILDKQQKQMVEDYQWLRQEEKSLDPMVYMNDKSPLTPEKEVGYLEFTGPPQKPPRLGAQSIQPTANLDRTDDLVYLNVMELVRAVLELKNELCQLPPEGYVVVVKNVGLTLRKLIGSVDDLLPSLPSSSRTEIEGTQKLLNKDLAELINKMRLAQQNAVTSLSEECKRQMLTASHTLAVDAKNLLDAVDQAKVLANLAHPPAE
# HCK = biological target: T6, HCK (Homo sapiens, UniProt P08631)
# T6 construct: specificity data for proteins generated from a library of eighteen full-length clones; host or cells: rabbit reticulocyte lysate, TnT coupled in vitro transcription/translation (cell-free)
# T6 sequence (P08631 whole entry): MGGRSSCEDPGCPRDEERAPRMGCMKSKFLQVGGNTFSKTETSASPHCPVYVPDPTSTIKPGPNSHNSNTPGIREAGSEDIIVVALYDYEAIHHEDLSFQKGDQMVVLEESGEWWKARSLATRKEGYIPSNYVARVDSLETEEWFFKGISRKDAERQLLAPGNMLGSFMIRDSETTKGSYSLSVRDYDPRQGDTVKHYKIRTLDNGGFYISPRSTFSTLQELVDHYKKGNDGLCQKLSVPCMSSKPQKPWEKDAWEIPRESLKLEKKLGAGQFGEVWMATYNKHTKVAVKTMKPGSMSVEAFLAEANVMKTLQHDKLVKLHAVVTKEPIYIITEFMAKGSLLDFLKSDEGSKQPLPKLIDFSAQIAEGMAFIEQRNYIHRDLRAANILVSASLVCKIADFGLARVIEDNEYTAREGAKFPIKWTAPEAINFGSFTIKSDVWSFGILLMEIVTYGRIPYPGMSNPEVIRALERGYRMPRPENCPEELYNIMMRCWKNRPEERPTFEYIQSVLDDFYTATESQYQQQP
# Kit = biological target: T7, Kit (Mus musculus, UniProt P05532)
# T7 construct: specificity data for proteins generated from a library of eighteen full-length clones; biotin on random lysines (biotin-Lys-tRNA); host or cells: rabbit reticulocyte lysate, coupled transcription/translation (TnT, Promega)
# T7 sequence (P05532 25-979): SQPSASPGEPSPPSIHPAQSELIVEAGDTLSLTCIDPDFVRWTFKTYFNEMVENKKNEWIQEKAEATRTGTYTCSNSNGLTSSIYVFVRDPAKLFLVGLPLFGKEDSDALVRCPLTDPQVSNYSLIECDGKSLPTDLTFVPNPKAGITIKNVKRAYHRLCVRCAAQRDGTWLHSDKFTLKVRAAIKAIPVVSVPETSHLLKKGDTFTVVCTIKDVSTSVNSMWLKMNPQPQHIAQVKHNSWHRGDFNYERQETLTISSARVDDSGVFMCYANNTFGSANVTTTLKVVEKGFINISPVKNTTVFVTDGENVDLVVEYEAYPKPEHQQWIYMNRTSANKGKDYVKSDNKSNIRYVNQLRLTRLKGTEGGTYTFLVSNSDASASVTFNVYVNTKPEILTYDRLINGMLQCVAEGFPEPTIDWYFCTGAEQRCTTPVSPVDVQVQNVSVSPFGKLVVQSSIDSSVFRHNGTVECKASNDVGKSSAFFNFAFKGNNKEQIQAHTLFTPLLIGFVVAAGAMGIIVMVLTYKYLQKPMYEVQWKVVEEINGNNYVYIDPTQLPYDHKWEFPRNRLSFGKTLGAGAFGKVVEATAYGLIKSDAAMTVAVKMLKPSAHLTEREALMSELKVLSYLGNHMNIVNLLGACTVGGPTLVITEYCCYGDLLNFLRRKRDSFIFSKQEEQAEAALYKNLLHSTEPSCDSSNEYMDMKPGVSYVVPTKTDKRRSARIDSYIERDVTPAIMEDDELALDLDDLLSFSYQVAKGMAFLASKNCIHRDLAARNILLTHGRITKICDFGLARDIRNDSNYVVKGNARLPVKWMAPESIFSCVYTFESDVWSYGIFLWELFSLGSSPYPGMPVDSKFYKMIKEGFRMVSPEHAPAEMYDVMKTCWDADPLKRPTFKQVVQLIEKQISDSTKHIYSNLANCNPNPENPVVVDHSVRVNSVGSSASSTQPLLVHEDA
# Fert2 = biological target: T8, Fert2 (Mus musculus, UniProt P70451)
# T8 construct: specificity data for proteins generated from a library of eighteen full-length clones; host or cells: rabbit reticulocyte lysate, TnT coupled transcription/translation
# T8 sequence (P70451 whole entry): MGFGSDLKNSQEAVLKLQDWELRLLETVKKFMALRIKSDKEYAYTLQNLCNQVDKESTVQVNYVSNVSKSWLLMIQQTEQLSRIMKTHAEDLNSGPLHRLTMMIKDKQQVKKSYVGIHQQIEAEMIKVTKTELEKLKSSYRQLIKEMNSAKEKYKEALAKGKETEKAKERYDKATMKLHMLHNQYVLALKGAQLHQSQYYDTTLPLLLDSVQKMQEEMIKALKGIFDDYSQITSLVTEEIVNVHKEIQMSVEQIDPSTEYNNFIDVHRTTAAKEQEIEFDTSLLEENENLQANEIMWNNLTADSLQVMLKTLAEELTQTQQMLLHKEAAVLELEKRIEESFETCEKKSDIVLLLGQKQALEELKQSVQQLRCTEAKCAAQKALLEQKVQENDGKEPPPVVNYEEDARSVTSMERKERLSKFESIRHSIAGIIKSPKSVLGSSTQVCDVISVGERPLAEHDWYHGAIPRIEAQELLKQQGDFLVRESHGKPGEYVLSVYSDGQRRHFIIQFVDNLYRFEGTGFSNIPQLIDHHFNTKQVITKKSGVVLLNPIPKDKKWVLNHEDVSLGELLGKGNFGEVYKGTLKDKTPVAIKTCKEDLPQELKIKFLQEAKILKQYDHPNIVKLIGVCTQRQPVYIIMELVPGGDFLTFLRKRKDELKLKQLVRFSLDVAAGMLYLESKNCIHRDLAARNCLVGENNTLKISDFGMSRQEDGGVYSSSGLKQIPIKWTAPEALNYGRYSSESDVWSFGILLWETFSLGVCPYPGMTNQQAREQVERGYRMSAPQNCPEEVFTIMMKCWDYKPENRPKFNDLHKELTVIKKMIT
Molecule,"Inhibition specificity towards Autophosphorylation at 10X IC50, BMX (BMX)","Inhibition specificity towards Autophosphorylation at 10X IC50, Tek (Tek)","Inhibition specificity towards Autophosphorylation at 10X IC50, FGFR1 (FGFR1)","Inhibition specificity towards Autophosphorylation at 10X IC50, CSK (CSK)","Inhibition specificity towards Autophosphorylation at 10X IC50, FRK (FRK)","Inhibition specificity towards Autophosphorylation at 10X IC50, PTK2B (PTK2B)","Inhibition specificity towards Autophosphorylation at 10X IC50, HCK (HCK)","Inhibition specificity towards Autophosphorylation at 10X IC50, Kit (Kit)","Inhibition specificity towards Autophosphorylation at 10X IC50, Fert2 (Fert2)"
COC(=O)c1ccc(NCc2cc(O)ccc2O)cc1 [AG-957],L (low inhibition (“L”=between 50–75% of the activity remaining)),M (medium inhibition (“M”=between 25 to 50% of the activity remaining)),L (low inhibition (“L”=between 50–75% of the activity remaining)),L (low inhibition (“L”=between 50–75% of the activity remaining)),L (low inhibition (“L”=between 50–75% of the activity remaining)),L (low inhibition (“L”=between 50–75% of the activity remaining)),L (low inhibition (“L”=between 50–75% of the activity remaining)),L (low inhibition (“L”=between 50–75% of the activity remaining)),
CC(C)(C)c1cc(C=C(C#N)C#N)cc(Br)c1O [AG-1024],,M (medium inhibition (“M”=between 25 to 50% of the activity remaining)),,,,,,,
Cc1cc2ncc(-c3ccc(O)c(O)c3)nc2cc1C [AG-1433],H (high inhibition (“H”=less than 25% of the activity remaining)),H (high inhibition (“H”=less than 25% of the activity remaining)),H (high inhibition (“H”=less than 25% of the activity remaining)),H (high inhibition (“H”=less than 25% of the activity remaining)),H (high inhibition (“H”=less than 25% of the activity remaining)),H (high inhibition (“H”=less than 25% of the activity remaining)),H (high inhibition (“H”=less than 25% of the activity remaining)),H (high inhibition (“H”=less than 25% of the activity remaining)),H (high inhibition (“H”=less than 25% of the activity remaining))
COc1c(C=O)c(O)cc2c1C(=O)c1ccccc1C2=O [Damnacanthal],H (high inhibition (“H”=less than 25% of the activity remaining)),H (high inhibition (“H”=less than 25% of the activity remaining)),M (medium inhibition (“M”=between 25 to 50% of the activity remaining)),M (medium inhibition (“M”=between 25 to 50% of the activity remaining)),H (high inhibition (“H”=less than 25% of the activity remaining)),M (medium inhibition (“M”=between 25 to 50% of the activity remaining)),M (medium inhibition (“M”=between 25 to 50% of the activity remaining)),H (high inhibition (“H”=less than 25% of the activity remaining)),L (low inhibition (“L”=between 50–75% of the activity remaining))
COc1cc2ncnc(Nc3ccc(O)cc3)c2cc1OC [WHI-P131],,,,,,,,L (low inhibition (“L”=between 50–75% of the activity remaining)),
Erbstatin analog,L (low inhibition (“L”=between 50–75% of the activity remaining)),L (low inhibition (“L”=between 50–75% of the activity remaining)),,,,L (low inhibition (“L”=between 50–75% of the activity remaining)),L (low inhibition (“L”=between 50–75% of the activity remaining)),L (low inhibition (“L”=between 50–75% of the activity remaining)),L (low inhibition (“L”=between 50–75% of the activity remaining))
